# “Also recorded” adds a separate entry of the source.
# Assays:
# [1] = test system: γ-secretase; experiment: Aβ concentrations in DAPT-treated TBI mice, to confirm γ-secretase inhibition; format: in vivo, mouse; conditions: three hours after final drug administration
# Procedure: (§1) The other secretase involved in amyloidogenic processing of APP is γ-secretase, and the pharmacological inhibitor N-[N-(3,5-difluorophenacetyl-L-alanyl)]-S-phenlyglycine t-butyl ester (DAPT) was used to block enzyme activity. […] Each mouse received the initial dose 15 minutes after CCI or sham surgery and then twice daily for 21 days. This dosing regime was implemented because Aβ is known to drop after γ-secretase inhibition before recovering over several hours (Abramowski et al., J. Pharmacol. Exp. Ther. 327:411-24 (2008), El Mouedden et al., Curr. Pharm. Des. 12:671-6 (2006)). To confirm γ-secretase inhibition in DAPT-treated mice, Aβ concentrations were measured. Three hours after final drug administration, Aβ levels were reduced by 25% (13.76±0.8 fmol per mg protein (vehicle-treated TBI mice) versus 10.42±0.4 fmol per mg protein (DAPT-treated TBI mice); P<0.01), and APP carboxy-terminal fragments accumulated.
# [2] = test system: TBI mice (controlled cortical impact); experiment: Beam walk test (fine motor coordination) after CCI; format: in vivo, mouse; conditions: for foot faults (beam walk): TBI mice, 50 steps
# Procedure: To test the effect of β-secretase on TBI outcome, the B-APP cleaving enzyme-1 (BACE1) Bace1^−/− knockout mouse was used. Bace1 is the initial rate-limiting enzyme for Aβ production. Bace1^−/− mice are unable to produce any species of Aβ (Cai et al., Nat. Neurosci. 4:233-4 (2001)), and the absence of Aβx-40 in brain homogenates by ELISA (0.1±0.09 fmol per mg protein) was confirmed. CCI surgery was performed, and the beam walk test was used to detect fine motor coordination aberrations (Fox et al., J. Neurotrauma 15:599-614 (1998)). This test examines the number of errors (foot faults) made by the right hind limb over 50 steps. The mice were trained on the test before injury, and the test was repeated on 1 day, 3 days, 7 days, 14 days, and 21 days after TBI. Injured Bace1^−/− mice made fewer foot faults at multiple time points, with a 38% final improvement over injured Bace1^+/+ mice (FIG. 4, P<0.001).
# as §1
# (§2) On the day after CCI, the first beam walk test was conducted. Vehicle-treated TBI mice made 50±0 foot faults and improved to 43±2 foot faults on the final day of testing (FIG. 9). […] Spatial learning with the Morris water maze was also tested.
# [3] = test system: TBI mice (controlled cortical impact); experiment: Morris water maze (spatial learning) after CCI; format: in vivo, mouse
# Procedure: A Morris water maze paradigm was used to assess spatial learning by training mice to locate a hidden, submerged platform using extramaze visual information (Fox et al., J. Neurotrauma 15:599-614 (1998)). The test was conducted 15-18 days after injury, and each mouse was tested for four trials per day for four consecutive days. Uninjured Bace1^+/+ mice were used as a behavioral control. Injured Bace1^+/+ mice had significant learning impairments on all 4 days of testing compared to uninjured Bace1^+/+ mice (P<0.01). Injured Bace1^−/− mice, however, improved rapidly, and on the final day of testing were indistinguishable from uninjured mice (FIG. 5, P<0.01). All groups had similar escape latencies when presented with a visual platform probe test (uninjured Bace1^+/+, 23.4±6.3 seconds; injured Bace1^+/+, 21.1±7.8 seconds; injured Bace1^−/−, 21.2±4.9 seconds).
# as §1, §2
# [4] = test system: TBI mice (controlled cortical impact); experiment: MRI of brain lesion 21 days after CCI; format: in vivo, mouse
# From the text: Five mice in each TBI group were randomly chosen for T2-weighted magnetic resonance imaging (MRI) analysis at 21 days after trauma. […] This was confirmed by fixed brain tissue sections (FIG. 7). […] Total lesion volume was reduced by 30% in […] (FIG. 9, P<0.05).
# (§3) The representative MRI images show a vehicle-treated TBI mouse with the brain lesion visible through 4 mm (8 mm×0.5 mm longitudinal sections) of tissue, whereas DAPT treatment results in damage through only 1.5 mm (3 mm×0.5 mm sections) (FIG. 13). […] The damage to the hippocampus was not as extensive as that seen in the Bacel study; however, cell loss in the CA1 region of mice after TBI was clearly visible (FIG. 16). This allowed quantification of cell loss in the hippocampus (FIG. 17). Neurons were stained with NeuN, a neuronal marker, and an unbiased stereology count was performed. TBI caused a 34% decrease in NeuN-positive cells in the CA1 region of the ipsilateral hippocampus (P<0.05). DAPT treatment attenuated this cell loss, resulting in a 10% reduction in CA1 neurons (P<0.05 versus vehicle-treated TBI mice).
# [5] = test system: TBI mice (controlled cortical impact); experiment: Histological assessment of lesion volume and NeuN stereology count of CA1 neurons; format: in vivo, mouse
# From the text: as §3
# [6] = test system: mouse model of stroke; conditions: after ischemia and reperfusion; Arumugam et al. 2006; cited from earlier work
structure (smiles),measurement,setting,value
"C[C@H](NC(=O)Cc1cc(F)cc(F)c1)C(=O)N[C@H](C(=O)OC(C)(C)C)c1ccccc1 [DAPT, N-[N-(3,5-Difluorophenacetyl)-L-alanyl]-S-phenylglycine t-butyl ester]",Aβ levels reduced,"[1]; DAPT 30 mg per kg orally twice daily for 21 days, versus vehicle-treated TBI mice",25%
same,APP carboxy-terminal fragments,[1]; DAPT-treated TBI mice,accumulated
same,Aβ concentration,[1]; DAPT-treated TBI mice,10.42±0.4 fmol per mg protein
same,improvement in foot faults over vehicle-treated TBI mice,[2]; 21 days after injury,42%
same,foot faults (beam walk),[2]; 21 days after injury,25±5 foot faults
same,foot faults (beam walk),[2]; day after surgery,48±1 foot faults
same,recovery of fine motor coordination on beamwalk test,"[2]; after 21 days, in words",Recovery is improved
same,"escape latency, visible platform probe",[3]; TBI mice,17.5 ± 3.7 s
same,spatial learning in Morris water maze,"[3]; TBI mice, 4 days of test, in words",indistinguishable from sham-injured mice; also recorded: prevents these deficits
same,"escape latency, visible platform probe",[3]; sham-operated mice,13.6 ± 3.4 s
same,lesion size by MRI,"[4]; injured mice, in words",substantially reduced lesion size
same,depth of tissue through which damage is visible on MRI,"[4]; representative images, 0.5 mm sections",1.5 mm
same,tissue sparing (histology),"[5]; H&E sections, in words",spared large areas of cortex and subcortical white matter tracts; also recorded: Subcortical white matter tracts are spared
same,"reduction in CA1 neurons (NeuN-positive cells, ipsilateral hippocampus)","[5]; TBI mice, stereology count",10%
same,neuronal populations in ipsilateral CA1 versus contralateral,"[5]; stereology cell counts, in words",This reduction is prevented
same,lesion volume,"[5]; versus vehicle control, in words",reduced
same,lesion volume decreased,[5]; versus vehicle-treated TBI mice,> 70%
same,infarct area,[6],reduced infarct area
same,neurological function,[6],improved neurological function

# Reference: US20100233156A1, “Treating Central Nervous System Injury with Beta and Gamma Secretase Inhibitors” (GEORGETOWN UNIVERSITY, priority 2009, published 2010)
